Our source for the EC50 values is US20230067929A1, “HETEROCYCLIC DERIVATIVES, PHARMACEUTICAL COMPOSITIONS AND THEIR USE IN THE TREATMENT, AMELIORATION OR PREVENTION OF CANCER” (Tolremo Therapeutics AG, priority 2018, published 2023).

The structures appear in SMILES notation. Bounds are passed on as bounds.

This test concerns A375 cells. Kind of test: A375 cell immunofluorescence assay (with 1 μM S1152 and 0.5 μM S1008), EC50. Type of test: cell-based. The following applies: 1 μM S1152 + 0.5 μM S1008, one day, ratio FL2/FL3 staining (sc-365823 antibody). In short, it runs like this:
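A375 cells were treated for 1 day with 1 μM S1152, 0.5 μM S1008 and compound dose ranges in DMEM/10% FCS/2 mM glutamine, then fixed, permeabilized and immunostained (secondary antibody 2 μg/ml). FL2 (500-530 nm) signal was measured in propidium iodide-defined objects (FL3, 565-600 nm). The normalized ln FL2/ln FL3 ratio was log-transformed, and EC50 came from a 4-parameter fit.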
Consider `O=C(CC(F)(F)F)N1CCCC(c2nc(Nc3cccc(F)c3)cc(-c3cccnc3)n2)C1` (stereo not drawn), for which the EC50 was greater than 10 µM.

As to `CCC(=O)N1CCCC(c2nc(Nc3cccc(F)c3)cc(-c3ccc(OC)cc3)n2)C1` (stereo not drawn), the EC50 was 1 to 10 µM.

On to `CC(=O)N1CCCC(c2nc(Nc3cncc(C)n3)cc(-c3cccnc3)n2)C1` (stereo not drawn), for which the EC50 lay in the range of 1 to 10 µM.

For the compound `CC(=O)N1CCCC(c2nc(NC34CC(C3)C4)cc(-c3cccnc3)n2)C1` (stereo not drawn), the concentration for a half-maximal effect (EC50) was greater than 10 µM.

Consider `CCN1CCCC(c2nc(Nc3cccc(F)c3)cc(-c3cccnc3)n2)C1` (stereo not drawn), for which the half-maximal effective concentration (EC50) was greater than 10 µM.

As to `CC(=O)N1CCCC(c2nc(Nc3cccc(F)c3)cc(N3CCOCC3)n2)C1` (stereo not drawn), the EC50 is greater than 10 µM.

With `CCC(=O)N1CCCC(c2nc(Nc3cccc(F)c3)cc(-c3cnc(N)nc3)n2)C1` (stereo not drawn), the concentration for a half-maximal effect (EC50) is greater than 10 µM.

Take `CC(C)C(=O)N1CCCC(c2nc(Nc3cccc(F)c3)cc(-c3cccnc3)n2)C1` (stereo not drawn): the concentration for a half-maximal effect (EC50) was greater than 10 µM.

`CCC(=O)N1CCCC(c2nc(Nc3cccc(F)c3)cc(-c3cc[nH]n3)n2)C1` (stereo not drawn): the EC50 is greater than 10 µM.

As for `COc1cncc(-c2cc(Nc3cccc(F)c3)nc([C@@H]3CCCN(C(C)=O)C3)n2)c1`, the concentration giving a half-maximal response (EC50) was less than 1 µM.

Regarding `CC(=O)N1CCCC(c2nc(Nc3cccc(F)c3)cc(NC3CCOCC3)n2)C1` (stereo not drawn), the 50% effective concentration (EC50) is greater than 10 µM.

For the compound `CCc1cncc(-c2cc(Nc3cccc(F)c3)nc(C3CCCN(C(C)=O)C3)n2)c1` (stereo not drawn), the EC50 was less than 1 µM.

With `CCC(=O)N1CCCC(c2nc(NC3CC3)cc(-c3cccnc3)n2)C1` (stereo not drawn), the EC50 is greater than 10 µM.

As for `CC(=O)N1CCCC(c2nc(Nc3cccc(F)c3)cc(-c3cncc(N4CCOCC4)c3)n2)C1` (stereo not drawn), the 50% effective concentration (EC50) is less than 1 µM.

Turning to `CC(=O)N1C[C@H](c2nc(Nc3cncc(C)c3)cc(-c3cncnc3)n2)CC[C@@H]1C`, the half-maximal effective concentration (EC50) is less than 1 µM.

On to `CCC(=O)N1CCCC(c2nc(Nc3cccc(F)c3)cc(-c3ccccn3)n2)C1` (stereo not drawn), for which the EC50 is greater than 10 µM.

On to `CC(=O)N1CCCC(c2nc(Nc3ccncc3)cc(-c3cccnc3)n2)C1` (stereo not drawn), for which the EC50 is 1 to 10 µM.

Turning to `CC(=O)N1CCCC(c2nc(Nc3ccncc3)cc(Nc3cccc(F)c3)n2)C1` (stereo not drawn), the EC50 was greater than 10 µM.

`CC(=O)N1CCCC(c2nc(NC3CCCCC3)cc(-c3cccnc3)n2)C1` (stereo not drawn): the concentration for a half-maximal effect (EC50) is greater than 10 µM.

In the case of `CCC(=O)N1CCCC(c2nc(Nc3cccc(F)c3)cc(Nc3ncccn3)n2)C1` (stereo not drawn), the half-maximal effective concentration (EC50) was 1 to 10 µM.

Regarding `CCC(=O)N1CCCC(c2nc(Nc3cccc(F)c3)cc(-c3sc(C(C)C)nc3C)n2)C1` (stereo not drawn), the EC50 was in the range of 1 to 10 µM.

As for `CCC(=O)N1CCCC(c2nc(Nc3cccc(F)c3)cc(C3=CCOCC3)n2)C1` (stereo not drawn), the concentration giving a half-maximal response (EC50) is greater than 10 µM.

As for `CC(=O)N1CCOCC(c2nc(Nc3cccc(F)c3)cc(-c3cccnc3)n2)C1` (stereo not drawn), the concentration giving a half-maximal response (EC50) lay within 1 to 10 µM.

Consider `CC(=O)N1CCCC(c2nc(Nc3cccc(F)c3)cc(Nc3ncccn3)n2)C1` (stereo not drawn), for which the half-maximal effective concentration (EC50) is less than 1 µM.

On to `CC(=O)N1CCCC(c2nc(Nc3cccc(F)c3)cc(-c3ccc(N4CCS(=O)(=O)CC4)nc3)n2)C1` (stereo not drawn), for which the half-maximal effective concentration (EC50) was greater than 10 µM.

Turning to `O=C(N1CCCC(c2nc(Nc3cccc(F)c3)cc(-c3cccnc3)n2)C1)C(F)(F)F` (stereo not drawn), the concentration for a half-maximal effect (EC50) was greater than 10 µM.

Turning to `CC(=O)N1CCCC(c2nc(Nc3cccc(F)c3)cc(-c3cncc(C(F)(F)F)c3)n2)C1` (stereo not drawn), the EC50 was greater than 10 µM.

`CC(=O)N1C[C@H](c2nc(Nc3ccccc3)cc(-c3cncc4[nH]ccc34)n2)CC[C@@H]1C`: the EC50 is less than 1 µM.

`CCC(=O)N1CCCC(c2nc(Nc3ccccc3F)cc(-c3cccnc3)n2)C1` (stereo not drawn): the EC50 lay in the range of 1 to 10 µM.

Regarding `CC(=O)N1CCCC(c2nc(Nc3cccc(F)c3)cc(-c3cc(Cl)cs3)n2)C1` (stereo not drawn), the concentration for a half-maximal effect (EC50) lay within 1 to 10 µM.

As for `CC(=O)N1CCCC(c2nc(Nc3cccc(F)c3)cc(-c3cnccc3C)n2)C1` (stereo not drawn), the concentration for a half-maximal effect (EC50) lay within 1 to 10 µM.

For the compound `CCC(=O)N1CCCC(c2nc(Nc3cccc(F)c3)cc(-c3sc(CC)nc3C)n2)C1` (stereo not drawn), the EC50 was greater than 10 µM.

Take `COc1cncc(-c2cc(Nc3cccc(C(F)F)c3)nc(C3CCCN(C(C)=O)C3)n2)c1` (stereo not drawn): the half-maximal effective concentration (EC50) was in the range of 1 to 10 µM.

In the case of `CCC(=O)N1CCCC(c2nc(-c3cccnc3)cc(N(C)c3cccc(F)c3)n2)C1` (stereo not drawn), the EC50 was in the range of 1 to 10 µM.

As to `COc1csc(-c2cc(Nc3cccc(F)c3)cc(C3CCCN(C(C)=O)C3)n2)c1` (stereo not drawn), the EC50 lay within 1 to 10 µM.

As to `CC(=O)N1CCCC(c2nc(Nc3cc(F)cc(F)c3)cc(-c3cncnc3)n2)C1` (stereo not drawn), the EC50 is 1 to 10 µM.

`CC(=O)N1C[C@H](c2nc(Nc3cccc(C)c3)cc(-c3cncc4[nH]ncc34)n2)CC[C@@H]1C`: the EC50 lay within 1 to 10 µM.

In the case of `COc1cncc(-c2cc(N(C)c3cccc(C)c3)nc(C3CCCN(C(C)=O)C3)n2)c1` (stereo not drawn), the half-maximal effective concentration (EC50) lay in the range of 1 to 10 µM.

As to `CCC(=O)N1CCCC(c2nc(Nc3cccc(F)c3)cc(-c3cncnc3)n2)C1` (stereo not drawn), the concentration for a half-maximal effect (EC50) lay within 1 to 10 µM.

`CCC(=O)N1CCCC(c2nc(Nc3cccc(F)c3)cc(Nc3cnccn3)n2)C1` (stereo not drawn): the EC50 was greater than 10 µM.

For `COc1csc(-c2cc(Nc3cccc(C)c3)nc(C3CCCN(C(C)=O)C3)n2)c1` (stereo not drawn), the EC50 is less than 1 µM.

Consider `CC(=O)N1CC(c2cc(Nc3cccc(F)c3)cc(-c3cccnc3)n2)CCC1C` (stereo not drawn) [drawing 689], for which the EC50 was greater than 10 µM.

For `CC(=O)N1CCCC(c2nc(Nc3cccc(F)c3)c(C)c(-c3cccnc3)n2)C1` (stereo not drawn), the concentration giving a half-maximal response (EC50) is greater than 10 µM.

Regarding `CCC(=O)N1CCCC(c2nc(Nc3cccc(F)c3)cc(-c3ccncc3)n2)C1` (stereo not drawn), the half-maximal effective concentration (EC50) is greater than 10 µM.

On to `CCC(=O)N1CCCC(c2nc(Nc3cccc(F)c3)cc(-c3cccc(N4CCOCC4)c3)n2)C1` (stereo not drawn), for which the EC50 lay in the range of 1 to 10 µM.

`CCC(=O)N1CCCC(c2nc(Cc3cccc(F)c3)cc(-c3cccnc3)n2)C1` (stereo not drawn): the EC50 was greater than 10 µM.

As to `CCC(=O)N1CCCC(c2nc(Nc3cccc(F)c3)cc(NC3CCOC3)n2)C1` (stereo not drawn), the EC50 is greater than 10 µM.

As for `COc1cncc(-c2cc(Nc3cccc(Cl)c3)nc([C@H]3CCCN(C(C)=O)C3)n2)c1`, the EC50 fell in the range of 1 to 10 µM.

With `CCC(=O)N1CCCC(c2nc(Nc3cccc(F)c3)cc(Nc3cccc(F)c3)n2)C1` (stereo not drawn), the EC50 is greater than 10 µM.

In the case of `CCC(=O)N1CCCC(c2nc(Nc3cccc(F)c3)cc(-c3cncc(F)c3)n2)C1` (stereo not drawn), the EC50 is greater than 10 µM.

For `CCC(=O)N1CCCC(c2nc(Nc3cccc(F)c3)cc(-c3ccsc3)n2)C1` (stereo not drawn), the EC50 was greater than 10 µM.

As for `CCC(=O)N1CCCC(c2nc(Nc3cccc(F)c3)cc(-c3ncccn3)n2)C1` (stereo not drawn), the concentration for a half-maximal effect (EC50) was greater than 10 µM.

In the case of `CCC(=O)N1CCCC(c2nc(Nc3cccc(OC)c3)cc(-c3cccnc3)n2)C1` (stereo not drawn), the concentration giving a half-maximal response (EC50) fell in the range of 1 to 10 µM.

`CC(=O)N1C[C@@H](c2nc(Nc3cccc(F)c3)cc(-c3cncc(O)c3)n2)CC[C@H]1C`: the concentration for a half-maximal effect (EC50) is greater than 10 µM.

As to `CC(=O)N1CCCC(c2nc(Nc3cccc(F)c3)cc(-c3cncc4[nH]ccc34)n2)C1` (stereo not drawn) [drawing 556], the half-maximal effective concentration (EC50) was less than 1 µM.

`CCC(=O)N1CCCC(c2nc(Cl)cc(Nc3ccccc3F)n2)C1` (stereo not drawn): the EC50 was greater than 10 µM.

As to `CCC(=O)N1CCCC(c2nc(NCc3ccccc3)cc(Nc3cccc(F)c3)n2)C1` (stereo not drawn), the concentration giving a half-maximal response (EC50) is greater than 10 µM.

As for `CC(=O)N1C[C@H](c2nc(Nc3ccccc3)cc(-c3cncnc3)n2)CC[C@@H]1C`, the EC50 was less than 1 µM.

For the compound `CS(=O)(=O)N1CCCC(c2nc(Nc3cccc(F)c3)cc(-c3cccnc3)n2)C1` (stereo not drawn), the concentration giving a half-maximal response (EC50) is greater than 10 µM.

Take `CNC(=O)N1CCCC(c2nc(Nc3cccc(F)c3)cc(-c3cccnc3)n2)C1` (stereo not drawn): the EC50 lay within 1 to 10 µM.

As to `COc1cncc(-c2cc(Nc3cccc(Cl)c3)nc([C@@H]3CCCN(C(C)=O)C3)n2)c1`, the EC50 is less than 1 µM.

Take `CCC(=O)N1CCCC(c2nc(Nc3ncccn3)cc(-c3cccnc3)n2)C1` (stereo not drawn): the 50% effective concentration (EC50) was greater than 10 µM.

In the case of `CN1CCC(c2nc(Nc3cccc(F)c3)cc(-c3cccnc3)n2)CC1=O` (stereo not drawn), the 50% effective concentration (EC50) is greater than 10 µM.

Broadly, the EC50 is the concentration that produces a half-maximal response.
